Results reported in patent publication US20260102380A1, “Synthesis and Characterization of Cyclic Hydrocarbon Esters of Everolimus” (BIOTRONIK AG, priority 2022, published 2026).
Where “and” joins values, the source holds several entries; their conditions need not be identical. Equal entries are not always repeated. Where two headings read alike, the source gives them in different places.

Assays:
[1] = Elution study on porcine coronary artery; details: for Percent of Drug Eluted Over Time: samples 1 and 2
Experimental: (§1) To examine the effects of certain formulations of the present invention on porcine coronary artery samples, the samples were each prepared as follows:
(§2) Elution Media Preparation: Normal saline was prepared by weighing 4.5 grams of sodium chloride into a 500 mL Pyrex® bottle. 495.5 grams HPLC water was added to the 500 ml bottle. The bottle was then capped and vigorously shaken. 25% ethanol/saline elution media was prepared by weighing 25.0 grams of ethanol (200 proof) into a 100 mL Pyrex® bottle. 75.0 grams of normal saline was added to the 100 ml bottle containing ethanol. The bottle was capped and vigorously shaken.
(§3) Elution Method: Porcine coronary arterial vessels were obtained and dissected from hearts obtained from the butcher shop. Coronary arteries were flash frozen with dry ice then stored at −80° C. When ready for testing, arteries were removed from the freezer and allowed to thaw at room temperature. Any fat and muscle tissue were carefully removed using scissors and tweezers. Vessels were rinsed several times with normal saline containing 0.05% sodium azide.
(§4) Vessels were then cut into 1 cm sections. 5 μL of formulation (approximately 125 μg of drug) was carefully added onto the outer part of the tissue using a 10 μL Hamilton® syringe. Ethanol was allowed to evaporate at room temperature for 15-20 minutes.
(§5) Tissue was then placed into a 7 mL glass vial. 2 mL elution media, previously warmed to 37° C., was added carefully to each vial using an Eppendorf® pipette. Each vial was capped and placed in a 37° C. incubator and gently shaken at 100 spm (strokes per minute).
(§6) At certain time points, elution media was removed and fresh 2 mL media (at 37° C.) was slowly added to the vial.
(§7) Drug formulations in ethanol were applied (approximately 125 μg) onto previously frozen “butcher shop” porcine coronary arterial vessel and allowed to dry after 15-20 minutes.

[2] = pig
Experimental: as §1, §2, §3, §4, §5, §6, §7

Row | Percent of Drug Eluted Over Time ([1]; 0.5 hours, approx. 125 μg drug on 1 cm vessel section, 25% ethanol/saline, 37° C.) | Percent of Drug Eluted Over Time ([1]; 1 hour, approx. 125 μg drug on 1 cm vessel section, 25% ethanol/saline, 37° C.) | Percent of Drug Eluted Over Time ([1]; 2 hours, approx. 125 μg drug on 1 cm vessel section, 25% ethanol/saline, 37° C.) | Percent of Drug Eluted Over Time ([1]; 3 hours, approx. 125 μg drug on 1 cm vessel section, 25% ethanol/saline, 37° C.) | Percent of Drug Eluted Over Time ([1]; 23 hours, approx. 125 μg drug on 1 cm vessel section, 25% ethanol/saline, 37° C.) | Percent of Drug Eluted Over Time ([1]; Extract (after extraction, following 23 hours of elution)) | Time within which most of the drug eluted off the tissue [2] | SMILES | Elution behavior from vessel tissue (in words) ([1]; porcine coronary arterial tissue, 25% ethanol/saline, 37° C.) | Elution behavior from vessel tissue (in words) [2]
1 | 77% and 71% | 86% and 76% | 87% and 79% | 88% and 80% | 89% and 80% | 89% and 81% | – | CO[C@H]1C[C@@H]2CC[C@@H](C)[C@@](O)(O2)C(=O)C(=O)N2CCCC[C@H]2C(=O)O[C@H]([C@H](C)C[C@@H]2CC[C@@H](OCCO)[C@H](OC)C2)CC(=O)[C@H](C)/C=C(\C)[C@@H](O)[C@@H](OC)C(=O)[C@H](C)C[C@H](C)/C=C/C=C/C=C/1C [Everolimus] | eluting significantly faster than CRC-023 | –
2 | – | – | – | – | – | – | ≤ 2 h | CO[C@H]1C[C@@H]2CC[C@@H](C)[C@@](O)(O2)C(=O)C(=O)N2CCCC[C@H]2C(=O)O[C@H]([C@H](C)C[C@@H]2CC[C@@H](O)[C@H](OC)C2)CC(=O)[C@H](C)/C=C(\C)[C@@H](O)[C@@H](OC)C(=O)[C@H](C)C[C@H](C)/C=C/C=C/C=C/1C [Sirolimus] | – | eluting significantly faster than CRC-023
